Results on three compounds are retold here after ChEMBL document CHEMBL5357008, “Novel Pyrazolopyridine Inhibitors of Monoacylglycerol Lipase for the Treatment of Neurodegenerative Diseases and Neuroinflammation” (ACS Med Chem Lett, 2024).

SMILES strings stand for the structures.

The target of the experiment is T1, Monoglyceride lipase (Homo sapiens, UniProt Q99685).
T1 sequence (Q99685 whole entry): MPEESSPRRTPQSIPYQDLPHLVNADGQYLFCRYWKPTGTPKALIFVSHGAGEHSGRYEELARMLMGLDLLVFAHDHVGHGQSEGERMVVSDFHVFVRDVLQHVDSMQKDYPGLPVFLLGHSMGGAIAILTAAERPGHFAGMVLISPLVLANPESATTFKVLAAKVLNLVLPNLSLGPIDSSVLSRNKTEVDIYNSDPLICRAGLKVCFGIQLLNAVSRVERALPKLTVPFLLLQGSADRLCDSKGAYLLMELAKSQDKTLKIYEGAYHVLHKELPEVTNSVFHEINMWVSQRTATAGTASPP
Kind of experiment: Inhibition of MAGL (unknown origin) using 2-arachidonoylglycerol as substrate preincubated with compound for 15 mins followed by substrate addition and measured after 30 mins by mass spectrometer analysis.

One may read the IC50 as the midpoint of a concentration-inhibition curve. For `C[C@H]1c2nn(C)c(-c3cc(F)cc(F)c3)c2CCN1C(=O)c1cc(F)cc(OCC2CNC(=O)O2)c1Cl` (stereo partly drawn), the IC50 stood at 2 nM.
To `COc1cccc(C(=O)N2CCc3c(nn(C)c3-c3cc(Cl)cc(CS(N)(=O)=O)c3)[C@@H]2C)c1Cl` belongs 27 nM; to `CC1c2nn(C)c(-c3cc(F)cc(F)c3)c2CCN1C(=O)c1cc(F)cc(OCC2CNC(=O)C2)c1Cl` (stereo not drawn), 5 nM.
